The values below come from US20240317758A1 (Halia Therapeutics, Inc., priority 2021, published 2024).

SMILES strings stand for the structures. Some results are limits rather than exact numbers.

The experiment addresses T1, full-length recombinant human NEK7 (Homo sapiens, UniProt Q8TDX7).
T1 construct: full-length recombinant human NEK7; GST (N); purchased SignalChem NO9-10G; host or cells: Sf9 insect cells (baculovirus)
Put plainly: NEK7 enzymatic assay. The format is biochemical. Conditions: recombinant human NEK7, casein substrate, radiolabelled ATP. As to the method:
Casein substrate (from bovine milk, hydrolyzed and partially dephosphorylated mixture of α, β and κ caseins, obtained from Sigma Aldrich, catalogue #C4765, diluted in distilled water to a final concentration of 1 mg/mL) and full-length recombinant human NEK7 (expressed by baculovirus in Sf9 insect cells using a N-terminal GST tag, obtained from SignalChem, catalogue #NO9-10G, 0.1 μg/μL) were mixed in assay buffer (20 mM Hepes pH 7.5, 10 mM MgCl2, 1 mM EGTA, 0.02% Brij35, 0.02 mg/ml BSA, 0.1 mM Na3VO4, 2 mM DTT, 1% DMSO). Compounds of interest (serial 3-fold dilution in DMSO from 10 μM to 0.5 nM) or vehicle (1% DMSO) were dispensed into the kinase reaction mixture by Acoustic technology (Echo550; nanoliter range). After incubation at room temperature for 20 minutes, the kinase reaction was initiated by addition of [^33P]-ATP (specific activity 10 μCi/μl) and the mixture was incubated at room temperature for 2 hours. The reaction was then stopped by spotting the reaction mixture on strips of phosphocellulose P81 paper. Following washing, the radioactivity of the P81 paper was measured and kinase activity data were expressed as the percent remaining kinase activity in test samples compared to vehicle reactions. IC50 values and curve fits were obtained using Prism (GraphPad Software).
Casein substrate (from bovine milk, hydrolyzed and partially dephosphorylated mixture of α, β and κ caseins, obtained from Sigma Aldrich, catalogue #C4765, diluted in distilled water to a final concentration of 1 mg/mL, assay concentration 20 μM) and full-length recombinant human Nek7 (expressed by baculovirus in Sf9 insect cells using a N-terminal GST tag, obtained from SignalChem, catalogue #NO9-10G, 0.1 μg/μL, assay concentration 70 nM) were mixed in assay buffer (20 mM Hepes pH 7.5, 10 mM MgCl2, 1 mM EGTA, 0.02% Brij35, 0.02 mg/ml BSA, 0.1 mM […], 2 mM DTT, 1% DMSO). Compounds of interest (in DMSO, serial 3-fold dilution from 10 μM to 0.5 nM) or control (1% DMSO) were dispensed into the kinase reaction mixture by Acoustic technology (Echo550; nanoliter range). After incubation at room temperature for 20 minutes, the kinase reaction was initiated by addition of [^32P]-ATP (Specific activity 10 μCi/μl) and the mixture was incubated at room temperature for 2 hours. The reaction was then stopped by spotting the reaction mixture on strips of phosphocellulose P81 paper. Following washing, the radioactivity of the P81 paper was measured and kinase activity data were expressed as the percent remaining kinase activity in test samples compared to vehicle (dimethyl sulfoxide) reactions. IC50 values and curve fits were obtained using Prism (GraphPad Software).

T1 sequence (Q8TDX7 whole entry): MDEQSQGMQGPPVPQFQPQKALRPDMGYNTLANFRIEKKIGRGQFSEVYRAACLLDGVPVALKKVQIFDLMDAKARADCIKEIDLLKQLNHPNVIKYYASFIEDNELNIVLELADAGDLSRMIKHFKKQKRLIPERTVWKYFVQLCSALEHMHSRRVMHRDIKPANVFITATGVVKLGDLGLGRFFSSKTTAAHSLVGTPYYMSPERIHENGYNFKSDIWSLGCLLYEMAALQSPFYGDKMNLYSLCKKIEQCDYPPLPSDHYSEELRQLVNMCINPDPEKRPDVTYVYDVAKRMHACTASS

On to `CCN1CCN(Cc2ccc(NC(=O)Nc3ccc(-c4cn(C5CC5)c5ncnc(N)c45)cc3Cl)cc2C(F)(F)F)CC1` [Example I-55, 1-(4-(4-amino-7-cyclopropyl-7H-pyrrolo[2,3-d]pyrimidin-5-yl)-2-chlorophenyl)-3-(4-((4-ethylpiperazin-1-yl)methyl)-3-(trifluoromethyl)phenyl)urea], for which the IC50 lay in the range of 100 to 500 nM.

As to `CN1CCN(Cc2ccc(NC(=O)Nc3ccc(-c4nn(CCCCCO)c5ncnc(N)c45)cc3F)cc2C(F)(F)F)CC1` [Example I-103, 1-(4-(4-amino-1-(5-hydroxypentyl)-1H-pyrazolo[3,4-d]pyrimidin-3-yl)-2-fluorophenyl)-3-(4-((4-methylpiperazin-1-yl)methyl)-3-(trifluoromethyl)phenyl)urea], the IC50 was under 100 nM.

With `Nc1ncnc2c1c(-c1ccc(NC(=O)Nc3ccc(CN4CCN(C5COC5)CC4)c(C(F)(F)F)c3)c(F)c1)cn2C1CC1` [Example I-86, 1-(4-(4-amino-7-cyclopropyl-7H-pyrrolo[2,3-d]pyrimidin-5-yl)-2-fluorophenyl)-3-(4-((4-(oxetan-3-yl)piperazin-1-yl)methyl)-3-(trifluoromethyl)phenyl)urea], the IC50 is 100 to 500 nM.

As for `CN(C)C1CCN(Cc2ccc(NC(=O)Nc3ccc(-c4cn(C5CC5)c5ncnc(N)c45)cc3F)cc2C(F)(F)F)CC1` [Example I-69], the IC50 is under 100 nM.

Turning to `Cc1cc(NC(=O)Nc2ccc(-c3nn(C4COC4)c4ncnc(N)c34)cc2)ccc1N1CCOCC1` [Example I-23, 1-(4-(4-amino-1-(oxetan-3-yl)-1H-pyrazolo[3,4-d]pyrimidin-3-yl)phenyl)-3-(3-methyl-4-morpholinophenyl)urea], the IC50 is over 2000 nM.

As to `Nc1ncnc2c1c(-c1ccc(NC(=O)Nc3ccc(CN4CCOCC4)cc3F)c(F)c1)cn2C1CC1` [Example I-1, 1-(4-(4-amino-7-cyclopropyl-7H-pyrrolo[2,3-d]pyrimidin-5-yl)-2-fluorophenyl)-3-(2-fluoro-4-(morpholinomethyl)phenyl)urea], the IC50 was over 2000 nM.

In the case of `CC1CN(C)CCN1Cc1ccc(NC(=O)Nc2ccc(-c3cn(C4CC4)c4ncnc(N)c34)cc2F)cc1C(F)(F)F` (centres unmarked) [Example I-70, 1-(4-(4-amino-7-cyclopropyl-7H-pyrrolo[2,3-d]pyrimidin-5-yl)-2-fluorophenyl)-3-(4-((2,4-dimethylpiperazin-1-yl)methyl)-3-(trifluoromethyl)phenyl)urea], the IC50 was 100 to 500 nM.

Turning to `CN1CCCN(Cc2ccc(NC(=O)Nc3ccc(-c4cn(C5CC5)c5ncnc(N)c45)cc3F)cc2C(F)(F)F)CC1` [Example I-44, 1-(4-(4-amino-7-cyclopropyl-7H-pyrrolo[2,3-d]pyrimidin-5-yl)-2-fluorophenyl)-3-(4-((4-methyl-1,4-diazepan-1-yl)methyl)-3-(trifluoromethyl)phenyl)urea], the IC50 is under 100 nM.

For the compound `CN1CCN(Cc2cc(NC(=O)Nc3ccc(-c4cn(C5CC5)c5ncnc(N)c45)cc3F)cc(C(F)(F)F)c2)CC1` [Example I-93, 1-(4-(4-amino-7-cyclopropyl-7H-pyrrolo[2,3-d]pyrimidin-5-yl)-2-fluorophenyl)-3-(3-((4-methylpiperazin-1-yl)methyl)-5-(trifluoromethyl)phenyl)urea], the half-maximal inhibitory concentration (IC50) was under 100 nM.

`CN1CCC(Cc2ccc(NC(=O)Nc3ccc(-c4cn(C5CC5)c5ncnc(N)c45)cc3F)cc2C(F)(F)F)CC1` [Example I-11, 1-(4-(4-amino-7-cyclopropyl-7H-pyrrolo[2,3-d]pyrimidin-5-yl)-2-fluorophenyl)-3-(4-((1-methylpiperidin-4-yl)methyl)-3-(trifluoromethyl)phenyl)urea]: the IC50 is over 2000 nM.

Turning to `CN1CCN(Cc2ccc(NC(=O)Nc3ccc(-c4cn(C5CN(C)C5)c5ncnc(N)c45)cc3F)cc2C(F)(F)F)CC1` [Example I-104, 1-(4-(4-amino-7-(1-methylazetidin-3-yl)-7H-pyrrolo[2,3-d]pyrimidin-5-yl)-2-fluorophenyl)-3-(4-((4-methylpiperazin-1-yl)methyl)-3-(trifluoromethyl)phenyl)urea], the half-maximal inhibitory concentration (IC50) is under 100 nM.

One may read the IC50 as the point on the concentration scale where inhibition reaches its midpoint.
